Experimental data taken from the supplement of paper PMC10883282.
± gives the standard deviation of the averaged measurements.

Legend:
Assay in all cases: relative viability vs DMSO control (72 h) (fraction); higher = more viable cells
KHOS-240S = test system: KHOS-240S
Summary of the method: (§1)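 After seeding at densities set for 80–90% confluence in 384-well plates, sarcoma cell lines waited 24 h before 2.5 µl of serially diluted compound was added. Source plates held 10 mM down to 0.0002 mM. Plates were incubated 72 h at 37 °C with 5% CO2, with 0.1% DMSO vehicle and a 5 µM positive control, and relative viability was taken from ATPLite as percent growth averaged over up to triplicate wells, with 1 set as full and 0 as none.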

SW872 = test system: SW872
Summary of the method: as §1

A204 = test system: A204
Summary of the method: as §1

SK-LMS-1 = test system: SK-LMS-1
Summary of the method: as §1

SYO-1 = test system: SYO-1
Summary of the method: as §1

SK-ES-1 = test system: SK-ES-1
Summary of the method: as §1

HS729 = test system: HS729
Summary of the method: as §1

SW982 = test system: SW982
Summary of the method: as §1

SW1353 = test system: SW1353
Summary of the method: as §1

G401 = test system: G401
Summary of the method: as §1

MES-SA = test system: MES-SA
Summary of the method: as §1

SW684 = test system: SW684
Summary of the method: as §1

COc1cc(OC)c(/C=C/S(=O)(=O)Cc2ccc(OC)c(NCC(=O)O)c2)c(OC)c1 [Rigosertib]
Settings	relative viability
A204, 0.00017 µM	1.08 ± 0.039
A204, 0.00051 µM	1.06 ± 0.043
A204, 0.00152 µM	1.08 ± 0.032
A204, 0.00457 µM	1.0898 ± 0.001
A204, 0.01372 µM	1.09 ± 0.054
A204, 0.04115 µM	1.07 ± 0.025
A204, 0.1235 µM	1.01 ± 0.035
A204, 0.3704 µM	0.672 ± 0.06
A204, 1.111 µM	0.398 ± 0.0089
A204, 3.333 µM	0.319 ± 0.0033
A204, 10 µM	0.248 ± 0.01
G401, 0.00017 µM	1.01 ± 0.025
G401, 0.00051 µM	1 ± 0.015
G401, 0.00152 µM	0.993 ± 0.051
G401, 0.00457 µM	1.02 ± 0.066
G401, 0.01372 µM	1.04 ± 0.016
G401, 0.04115 µM	1.01 ± 0.036
G401, 0.1235 µM	0.983 ± 0.068
G401, 0.3704 µM	0.919 ± 0.017
G401, 1.111 µM	0.534 ± 0.051
G401, 3.333 µM	0.424 ± 0.02
G401, 10 µM	0.361 ± 0.025
HS729, 0.00017 µM	0.973 ± 0.069
HS729, 0.00051 µM	0.989 ± 0.066
HS729, 0.00152 µM	0.934 ± 0.056
HS729, 0.00457 µM	0.938 ± 0.052
HS729, 0.01372 µM	1.02 ± 0.057
HS729, 0.04115 µM	0.966 ± 0.023
HS729, 0.1235 µM	0.928 ± 0.042
HS729, 0.3704 µM	0.85 ± 0.063
HS729, 1.111 µM	0.625 ± 0.027
HS729, 3.333 µM	0.579 ± 0.016
HS729, 10 µM	0.517 ± 0.023
KHOS-240S, 0.00017 µM	1.06 ± 0.011
KHOS-240S, 0.00051 µM	1.07 ± 0.013
KHOS-240S, 0.00152 µM	1.051 ± 0.0029
KHOS-240S, 0.00457 µM	1.05 ± 0.037
KHOS-240S, 0.01372 µM	1.03 ± 0.03
KHOS-240S, 0.04115 µM	0.981 ± 0.049
KHOS-240S, 0.1235 µM	0.385 ± 0.0043
KHOS-240S, 0.3704 µM	0.228 ± 0.0065
KHOS-240S, 1.111 µM	0.168 ± 0.0086
KHOS-240S, 3.333 µM	0.15 ± 0.0094
KHOS-240S, 10 µM	0.135 ± 0.016
MES-SA, 0.00017 µM	0.901 ± 0.04
MES-SA, 0.00051 µM	0.906 ± 0.026
MES-SA, 0.00152 µM	0.911 ± 0.047
MES-SA, 0.00457 µM	0.91 ± 0.021
MES-SA, 0.01372 µM	0.918 ± 0.011
MES-SA, 0.04115 µM	0.932 ± 0.049
MES-SA, 0.1235 µM	0.607 ± 0.086
MES-SA, 0.3704 µM	0.271 ± 0.0088
MES-SA, 1.111 µM	0.172 ± 0.0032
MES-SA, 3.333 µM	0.13 ± 0.0022
MES-SA, 10 µM	0.13 ± 0.002
SK-ES-1, 0.00017 µM	1 ± 0.054
SK-ES-1, 0.00051 µM	1.02 ± 0.011
SK-ES-1, 0.00152 µM	0.98 ± 0.058
SK-ES-1, 0.00457 µM	1.08 ± 0.015
SK-ES-1, 0.01372 µM	1.03 ± 0.052
SK-ES-1, 0.04115 µM	0.987 ± 0.028
SK-ES-1, 0.1235 µM	0.252 ± 0.027
SK-ES-1, 0.3704 µM	0.038 ± 0.0022
SK-ES-1, 1.111 µM	0.0202 ± 0.0012
SK-ES-1, 3.333 µM	0.0195 ± 0.00057
SK-ES-1, 10 µM	0.0239 ± 0.0018
SK-LMS-1, 0.00017 µM	1.08 ± 0.059
SK-LMS-1, 0.00051 µM	1.05 ± 0.012
SK-LMS-1, 0.00152 µM	1.05 ± 0.032
SK-LMS-1, 0.00457 µM	1.03 ± 0.026
SK-LMS-1, 0.01372 µM	1.03 ± 0.038
SK-LMS-1, 0.04115 µM	0.912 ± 0.021
SK-LMS-1, 0.1235 µM	0.659 ± 0.0078
SK-LMS-1, 0.3704 µM	0.492 ± 0.034
SK-LMS-1, 1.111 µM	0.359 ± 0.0042
SK-LMS-1, 3.333 µM	0.355 ± 0.016
SK-LMS-1, 10 µM	0.325 ± 0.011
SW684, 0.00017 µM	1.14 ± 0.036
SW684, 0.00051 µM	1.2 ± 0.032
SW684, 0.00152 µM	1.15 ± 0.032
SW684, 0.00457 µM	1.19 ± 0.017
SW684, 0.01372 µM	1.19 ± 0.059
SW684, 0.04115 µM	1.15 ± 0.03
SW684, 0.1235 µM	1.02 ± 0.027
SW684, 0.3704 µM	0.73 ± 0.026
SW684, 1.111 µM	0.681 ± 0.034
SW684, 3.333 µM	0.713 ± 0.024
SW684, 10 µM	0.756 ± 0.021
SW872, 0.00017 µM	1.04 ± 0.011
SW872, 0.00051 µM	1.05 ± 0.027
SW872, 0.00152 µM	1.05 ± 0.038
SW872, 0.00457 µM	1.06 ± 0.016
SW872, 0.01372 µM	1.045 ± 0.0064
SW872, 0.04115 µM	1.06 ± 0.029
SW872, 0.1235 µM	1.019 ± 0.00056
SW872, 0.3704 µM	0.927 ± 0.024
SW872, 1.111 µM	0.515 ± 0.037
SW872, 3.333 µM	0.479 ± 0.012
SW872, 10 µM	0.477 ± 0.028
SW982, 0.00017 µM	1.06 ± 0.017
SW982, 0.00051 µM	1.04 ± 0.038
SW982, 0.00152 µM	1.05 ± 0.035
SW982, 0.00457 µM	1.07 ± 0.036
SW982, 0.01372 µM	1.07 ± 0.045
SW982, 0.04115 µM	1.06 ± 0.036
SW982, 0.1235 µM	0.92 ± 0.026
SW982, 0.3704 µM	0.52 ± 0.027
SW982, 1.111 µM	0.26 ± 0.018
SW982, 3.333 µM	0.256 ± 0.012
SW982, 10 µM	0.273 ± 0.014
SW1353, 0.00017 µM	1 ± 0.0044
SW1353, 0.00051 µM	1.01 ± 0.014
SW1353, 0.00152 µM	0.994 ± 0.035
SW1353, 0.00457 µM	0.989 ± 0.022
SW1353, 0.01372 µM	0.992 ± 0.03
SW1353, 0.04115 µM	0.968 ± 0.026
SW1353, 0.1235 µM	0.932 ± 0.074
SW1353, 0.3704 µM	0.702 ± 0.013
SW1353, 1.111 µM	0.426 ± 0.0069
SW1353, 3.333 µM	0.428 ± 0.015
SW1353, 10 µM	0.429 ± 0.031
SYO-1, 0.00017 µM	0.957 ± 0.018
SYO-1, 0.00051 µM	0.982 ± 0.057
SYO-1, 0.00152 µM	0.96 ± 0.033
SYO-1, 0.00457 µM	0.961 ± 0.054
SYO-1, 0.01372 µM	0.942 ± 0.04
SYO-1, 0.04115 µM	0.966 ± 0.067
SYO-1, 0.1235 µM	0.941 ± 0.043
SYO-1, 0.3704 µM	0.896 ± 0.056
SYO-1, 1.111 µM	0.3561 ± 0.0018
SYO-1, 3.333 µM	0.287 ± 0.011
SYO-1, 10 µM	0.305 ± 0.0095
